From ChEMBL document CHEMBL1147897, “Synthesis of enantiomerically pure milnacipran analogs and inhibition of dopamine, serotonin, and norepinephrine transporters” (Bioorg Med Chem Lett, 2007) come the findings set out here.

The structures appear in SMILES notation. pIC50: −log10 of the molar value. “And” between values parts separate entries of the source, which are not always exact repeats. Equal values may be shown once.

Holding throughout (assay type): functional, subcellular, Brain
For test [1], the target named is Norepinephrine transporter (Rattus norvegicus, UniProt Q9WTR4). The test can be described thus: Inhibition of [3H]5-HT uptake at NE transporter in Wistar rat synaptosomes.
Chain of Norepinephrine transporter (Q9WTR4 whole entry): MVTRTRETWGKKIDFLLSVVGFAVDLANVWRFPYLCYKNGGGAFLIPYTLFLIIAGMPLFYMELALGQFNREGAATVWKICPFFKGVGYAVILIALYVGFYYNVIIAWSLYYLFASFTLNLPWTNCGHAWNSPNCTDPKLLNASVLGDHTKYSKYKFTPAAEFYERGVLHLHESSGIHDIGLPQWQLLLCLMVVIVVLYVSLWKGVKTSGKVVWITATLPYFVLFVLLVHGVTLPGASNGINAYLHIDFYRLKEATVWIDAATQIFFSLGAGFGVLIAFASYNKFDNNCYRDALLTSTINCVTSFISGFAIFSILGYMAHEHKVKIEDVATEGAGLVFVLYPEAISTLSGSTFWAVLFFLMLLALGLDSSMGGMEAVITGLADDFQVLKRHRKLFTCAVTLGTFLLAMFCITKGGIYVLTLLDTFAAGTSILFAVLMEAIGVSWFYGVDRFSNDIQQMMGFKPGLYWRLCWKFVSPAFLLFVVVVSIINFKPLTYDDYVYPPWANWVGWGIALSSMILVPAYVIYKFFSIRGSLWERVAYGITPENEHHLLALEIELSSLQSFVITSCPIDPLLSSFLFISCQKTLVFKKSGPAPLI
The target of test [2] is Sodium-dependent serotonin transporter (Rattus norvegicus, UniProt P31652). As to the kind of experiment: Inhibition of [3H]5-HT uptake at 5HT transporter in Wistar rat synaptosomes.
Chain of Sodium-dependent serotonin transporter (P31652 whole entry): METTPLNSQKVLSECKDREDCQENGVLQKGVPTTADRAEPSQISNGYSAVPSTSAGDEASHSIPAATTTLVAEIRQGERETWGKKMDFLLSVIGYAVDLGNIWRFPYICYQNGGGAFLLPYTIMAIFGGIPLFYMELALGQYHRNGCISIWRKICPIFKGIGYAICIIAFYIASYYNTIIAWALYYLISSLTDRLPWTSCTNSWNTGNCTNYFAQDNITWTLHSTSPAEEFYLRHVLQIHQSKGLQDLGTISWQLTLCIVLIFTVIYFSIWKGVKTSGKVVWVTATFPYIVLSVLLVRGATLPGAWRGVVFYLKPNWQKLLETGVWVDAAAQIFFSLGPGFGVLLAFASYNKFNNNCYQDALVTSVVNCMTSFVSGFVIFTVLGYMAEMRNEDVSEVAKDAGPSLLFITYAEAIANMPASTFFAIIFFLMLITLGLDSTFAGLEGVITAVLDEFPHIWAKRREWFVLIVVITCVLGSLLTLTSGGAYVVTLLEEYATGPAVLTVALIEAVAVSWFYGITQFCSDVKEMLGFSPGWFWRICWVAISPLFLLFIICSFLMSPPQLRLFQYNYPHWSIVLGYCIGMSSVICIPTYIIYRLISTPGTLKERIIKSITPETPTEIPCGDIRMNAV
The target of test [3] is Sodium-dependent dopamine transporter (Rattus norvegicus, UniProt P23977). The test can be described thus: Inhibition of [3H]5-HT uptake at DA transporter in Wistar rat synaptosomes.
Chain of Sodium-dependent dopamine transporter (P23977 whole entry): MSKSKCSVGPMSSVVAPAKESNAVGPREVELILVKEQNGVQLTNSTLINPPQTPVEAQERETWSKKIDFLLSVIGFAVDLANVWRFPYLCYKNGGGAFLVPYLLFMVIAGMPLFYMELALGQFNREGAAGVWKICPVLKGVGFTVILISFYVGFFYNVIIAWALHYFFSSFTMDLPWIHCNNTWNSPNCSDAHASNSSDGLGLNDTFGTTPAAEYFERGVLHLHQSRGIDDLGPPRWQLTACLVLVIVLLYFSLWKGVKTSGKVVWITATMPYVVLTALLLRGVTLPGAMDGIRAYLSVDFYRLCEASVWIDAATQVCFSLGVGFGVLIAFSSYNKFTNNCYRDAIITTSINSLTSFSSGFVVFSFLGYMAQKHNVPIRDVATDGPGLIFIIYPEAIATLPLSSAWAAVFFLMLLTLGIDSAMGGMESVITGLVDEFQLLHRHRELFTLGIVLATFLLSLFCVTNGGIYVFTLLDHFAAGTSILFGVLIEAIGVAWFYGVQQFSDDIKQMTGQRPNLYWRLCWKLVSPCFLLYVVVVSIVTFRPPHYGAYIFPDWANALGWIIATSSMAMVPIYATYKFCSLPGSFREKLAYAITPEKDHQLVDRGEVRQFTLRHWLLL

A word on the pIC50: it is −log10 of the IC50, conventionally taken in molar units. A high value points to a small IC50. With `CCN(CC)C(=O)[C@]1(c2ccc(OC)cc2)C[C@@H]1CN`, the pIC50 is 6.85 in test [1] and 6.64 in test [2].
Regarding `CCN(CC)C(=O)[C@]1(c2ccc(F)cc2)C[C@@H]1CN`, the negative-log IC50 (pIC50) is 5.00 in test [3], 6.30 in test [1] and 6.49 in test [2].
Turning to `CCN(CC)C(=O)[C@@]1(c2ccc(OC)cc2)C[C@H]1CN`, the pIC50 in test [1] was 7.46; in test [2], 6.29.
Regarding `CCN(CC)C(=O)[C@]1(c2ccc(Cl)cc2)C[C@@H]1CN`, the pIC50 in test [3] is 5.43; in test [2], 6.72.
On to `CCN(CC)C(=O)[C@@]1(c2ccc(Cl)c(Cl)c2)C[C@H]1CN`, for which the pIC50 in test [3] was 5.77; in test [1] it was 7.59; in test [2] it was 6.36.
As to `CCN(CC)C(=O)[C@]1(c2cccc(Cl)c2)C[C@@H]1CN`, the pIC50 in test [1] is 7.42; in test [2], 6.77.
For the compound `CCN(CC)C(=O)[C@]1(c2cccc3ccccc23)C[C@@H]1CN`, the results for the pIC50 in test [3], in test [1] and in test [2] were 5.28, 6.70 and 5.92, respectively.
With `CCN(CC)C(=O)[C@]1(c2ccsc2)C[C@@H]1CN`, the pIC50 in test [1] is 6.39; in test [2] it was 6.60.
As for `CCN(CC)C(=O)[C@@]1(c2ccc3ccccc3c2)C[C@H]1CN`, the pIC50 is 5.85 in test [3], 7.54 in test [1] and 6.89 in test [2].
In the case of `CCN(CC)C(=O)[C@@]1(c2cccc(Cl)c2)C[C@H]1CN`, the pIC50 in test [3] is 5.05; in test [1], 7.48; in test [2] it was 7.07.
For `CCN(CC)C(=O)[C@]1(c2cccs2)C[C@@H]1CN`, the pIC50 in test [2] is 6.60 and 6.28.
Compound `CCN(CC)C(=O)[C@@]1(c2ccc(Cl)cc2)C[C@H]1CN` had a pIC50 in test [2] of 6.10.
For `CCN(CC)C(=O)[C@]1(c2ccc(Cl)c(Cl)c2)C[C@@H]1CN`, the values for the pIC50 in test [3], in test [1] and in test [2] were 6.27, 8.00 and 7.08, respectively.
Consider `CCN(CC)C(=O)[C@@]1(c2ccsc2)C[C@H]1CN`, for which the pIC50 is 5.00 in test [3], 7.72 in test [1] and 6.72 in test [2].
The corresponding values for `CCN(CC)C(=O)[C@@]1(c2cccc3ccccc23)C[C@H]1CN` are 5.00, 6.43 and 5.15.
Take `CCN(CC)C(=O)[C@@]1(c2ccc(F)cc2)C[C@H]1CN`: the values for the pIC50 in test [1] and in test [2] were 7.20 and 6.68, respectively.
For the compound `CCN(CC)C(=O)[C@]1(c2ccc3ccccc3c2)C[C@@H]1CN`, the pIC50 in test [3] was 6.85; in test [1] it was 8.30; in test [2], 7.74.
